Assays:
[1] = Alkaloid feeding experiment, alkaloid abundance in tissues by LC-MS/MS; type: in vivo, Dendrobates tinctorius
Text: Lab-reared (non-toxic) Dendrobates tinctorius were housed in terraria with live plants, a water pool, and a shelter. Ten adult females were size-matched, randomly assigned to control or experimental groups (N = 5 per group), and then housed individually. To measure the specific effects of PTX 251D compared to a background toxicity, the control group was fed 0.01% DHQ (Sigma-Aldrich, St. Louis, USA) in a solution of 1% EtOH and the experimental group was fed a solution of 0.01% DHQ and 0.01% PTX 251D (PepTech, Burlington, MA, USA) in a solution of 1% EtOH in water. Each frog was fed 15 μL each day for five days by pipetting the solution directly into the mouth between 10am-12pm. On the afternoon of the fifth day, frogs were euthanized by cervical transection and the dorsal skin, liver, intestines, and oocytes were dissected into Trizol (Thermo Fisher Scientific, Waltham, USA).
To isolate alkaloids, 0.3 mL of 100% EtOH was added to 1mL of organic layer from the Trizol RNA extraction, inverted 10 times, and stored at room temperature for 2–3 minutes to precipitate genomic DNA, which was pelleted by centrifugation at 2000g for 5 minutes at 4°C. Then, 300 μL of supernatant was transferred to a new microfuge tube. Proteins were precipitated by adding 900 μL of acetone, mixing by inversion for 10–15 seconds, incubating at room temperature for 10 min, and centrifuging at max speed for 10 min at 4°C. Then, 1 mL of the supernatant containing alkaloids was moved into a glass vial and stored at -20°C until dried down completely under a gentle nitrogen gas flow.
Samples were resuspended in 200 μl of methanol:chloroform 1:1 and 1 μM Nicotine-d3 (used as an internal standard). A 10-point standard curve was prepared in the same solution with DHQ and PTX 251D. A QE+ mass spectrometer coupled to an Ultimate3000 LC (ThermoFisher) was used for analysis. […] The gradient was 0% B for 1 min, then increased to 100% B in 14 min, followed by 5 min at 100% B and 3.5 min at 0% B. Data were quantified using accurate mass, using the standard curve for DHQ and PTX 251D for absolute quantification. aPTX 267A was identified by accurate mass and MS/MS fragmentation similarity to PTX.
R version 3.6.3 was used for all statistical analyses, and all plotting and statistics code is provided in a S1 File. There were instances in the LC-MS/MS data where the molecules of interest (DHQ, PTX 251D, or aPTX 267A) were not detected, and these were converted to zeros prior to statistical analyses and visualization. […] PTX 251D and DHQ were analyzed separately. The abundance of aPTX 267A was approximated using the area-under-the-curve divided by the internal nicotine standard, and as there is no standard for aPTX 267A, exact pmol values could not be calculated. […]

[2] = system: mice; conditions: cited from earlier work

| Structure (SMILES) | aPTX 267A abundance across tissues ([1]; DHQ+PTX feeding group) | aPTX 267A in the skin after PTX 251D feeding ([1]; DHQ+PTX feeding group vs DHQ-fed group, all individuals, area-under-the-curve divided by internal nicotine standard) | lethal dose (hyperactivity, convulsions, and death) ([2]; injected into mice) [mg/kg] | lethal dose relative to that of PTX 251D ([2]; mice) | DHQ abundance across tissue types ([1]; fed orally daily for five days, skin, liver, intestines, oocytes) |
| --- | --- | --- | --- | --- | --- |
| CCCCC(C)C=C1CN2CCCC2C(C)(O)C1O (centres unmarked) [aPTX 267A, allopumiliotoxin (aPTX 267A)] | greater abundance in the skin than the oocytes | higher levels than the DHQ-fed group | 2 | five times lower | – |
| C1CCC2NCCCC2C1 (centres unmarked) [DHQ, reference compound] | – | – | – | – | highest levels occurring in the liver and skin |
